Results: patent US10265276B2, “Pharmaceutical composition for preventing or treating arthritis or inflammatory disease containing 2-methoxy-4-(3-(4-methoxyphenyl)propyl-1-en-1-yl)phenol as active ingredient” (CHUNGBUK NATIONAL UNIVERSITY INDUSTRY-ACADEMIC COOPERATION …, priority 2015, dated 2019)

What was measured:
[1] = target: T1, STAT3 (Mus musculus, UniProt P42227); assay: Pull-down assay, MMPP conjugated to Sepharose 6B beads; type: binding; settings: recombinant STAT3 protein and cell lysate containing STAT3 from RAW 264.7 cells
T1 construct: a cell lysate containing a recombinant STAT3 protein or a STAT3 protein; endogenous in cells; host or cells: RAW 264.7
Protocol: As a method for isolating a protein complex, a pull-down assay is an assay for checking a protein-protein interaction. To identify a protein interacting with MMPP, MMPP was bound to […] epoxy-activated Sepharose 6B (Sigma, St Louis, Mo., United States).
To check the interaction between MMPP and STAT3, a pull-down assay was carried out. MMPP was conjugated to epoxy-activated Sepharose 6B. A pull-down assay was performed using an interaction between a cell lysate containing a recombinant STAT3 protein or a STAT3 protein and MMPP conjugated to Sepharose 6B beads. […] Referring to FIG. 2(D), it can also be seen that the binding of MMPP to mutant STAT3 Thr456A was reduced, compared to the STAT3.

[2] = test system: iNOS and COX-2; assay: Western blotting of iNOS and COX-2 expression in LPS-induced RAW 264.7 cells; type: cell-based, mouse; set-up: dose or concentration left out as unconfirmed; settings: LPS and MMPP
[3] = test system: RAW 264.7 cells; assay: ROS, PGE2 and pro-inflammatory cytokine assays in LPS-induced RAW 264.7 cells; type: cell-based, mouse; settings: concentration-dependent manner (0 to 4 mg/mL)
Protocol: 7. PEG2 and cytokine Assays: A PGE2 assay was carried out in the cultured RAW 264.7 cells using an ELISA kit (commercially available from R&D Systems).
(§1) 8. ROS Assay: An ROS assay was carried out using an ELISA kit (commercially available from Cell Biolabs Inc.).
RAW 264.7 cells were transiently infected with a STAT3-luciferase construct, treated with LPS (1 μg/mL) alone or a combination of MMPP and LPS, and then activated for 12 hours. Thereafter, the luciferase activity, the ROS and PGE2 expression, and a level of pro-inflammatory cytokines were determined.

[4] = test system: RAW 264.7 cells; assay: Anti-inflammatory effect in TNF-α-treated RAW 264.7 cells; type: cell-based, mouse; settings: TNF-α (10 ng/mL), 24 hours
Protocol: 6. Nitrite assay: RAW 264.7 cells were added to a 96-well plate at a density of 1×10^4 cells/well, and LPS […] and TNF-α (10 ng/mL) were added or not added for 24 hours in the presence or absence of various concentrations of MMPP. Accumulation of nitrites in a supernatant was analyzed using a nitric oxide assay kit commercially available from iNtRON Biotechnology (Seongnam, Korea).
as §1
In Experimental Example 7, an experiment regarding an anti-inflammatory effect of MMPP in TNF-α-treated RAW 264.7 cells was performed.
It was confirmed that, when RAW 264.7 cells were treated with TNF-α (10 ng/mL) in combination with MMPP […] for 24 hours, the NO and ROS generation (FIG. 8(A)), the iNOS and COX2 expression (FIG. 8(B)), and the STAT3 and NF-κB activities (FIGS. 8(C) and (D)) induced by treatment with TNF-α (10 ng/mL) were reduced in the RAW 264.7 cells.

[5] = test system: synoviocytes; assay: Anti-inflammatory effect in LPS- or TNF-α-treated synoviocytes; type: cell-based, human; settings: LPS or TNF-α (10 ng/mL), 24 hours
Description: 4. Human synoviocyte culture: The research protocol and human tissue cells used in the study were approved by the College of Medicine of Soon Chun Hyang University Medical Center. Cells were obtained from patients with rheumatoid arthritis diagnosed according to the American College of Rheumatology classification criteria revised in 1987. Synovial tissue samples are obtained from knee joints of patients with long-term rheumatoid arthritis (two males and two females, an average age of 65±21.3 years, and an average onset period of 10 years or more). FLS (Fibroblast-like synoviocytes) were cultured as described above. Simply, the FLSs were cultured in a culture dish (Nalge Nunc International, Rochester, N.Y., USA) containing a DMEM culture medium (Gibco Life Technologies) supplemented with […] FBS (Gibco Life Technologies) and 50 U·mL^−1 penicillin/streptomycin. For all cultures and an incubator, the culture was performed at 37° C. in an incubator under a 5% CO2 atmosphere. The medium was replaced every three days. The cells between 5th and 10th passage were used.
In Experimental Example 8, an experiment was performed to check an anti-inflammatory effect of MMPP in synoviocytes treated with LPS and TNF-α.
It was confirmed that the LPS […]- or TNF-α (10 ng/mL)-induced NO and ROS generations (FIG. 9(A)), the iNOS and COX2 expression (FIG. 9(B)), and STAT3 and NF-κB activities (FIGS. 9(C) and (D)) were reduced in the synoviocytes in the case of groups in which the […] were treated with LPS […] or TNF-α (10 ng/mL) in combination with MMPP […] for 24 hours.

[6] = test system: NF-κB and STAT3; assay: EMSA and Western blotting of CAIA-induced ankle joint tissues; type: in vivo, mouse
Protocol: In addition, the DNA binding activities of NF-κB and STAT3 were determined by EMSA. The same amount of the total proteins (20 μg/Lane) was subjected to 10% SDS-PAGE, and STAT3, P-STAT3, p50, p65, IKK, 1 KB, and p-1lκB were detected through Western blotting. A β-actin protein or histone H was used as the control. As a result, it can be seen that MMPP inhibited the STAT3 DNA-binding activity (FIG. 12(A)), the NF-κB STAT3 DNA-binding activity (FIG. 12(B)), nuclear translocation of pSTAT3, p50 and p65, and phosphorylation of IkB, IKKb and IKKa in the CAIA-induced ankle joint tissues (FIGS. 12(C) and 12(D))

T1 sequence (P42227 whole entry): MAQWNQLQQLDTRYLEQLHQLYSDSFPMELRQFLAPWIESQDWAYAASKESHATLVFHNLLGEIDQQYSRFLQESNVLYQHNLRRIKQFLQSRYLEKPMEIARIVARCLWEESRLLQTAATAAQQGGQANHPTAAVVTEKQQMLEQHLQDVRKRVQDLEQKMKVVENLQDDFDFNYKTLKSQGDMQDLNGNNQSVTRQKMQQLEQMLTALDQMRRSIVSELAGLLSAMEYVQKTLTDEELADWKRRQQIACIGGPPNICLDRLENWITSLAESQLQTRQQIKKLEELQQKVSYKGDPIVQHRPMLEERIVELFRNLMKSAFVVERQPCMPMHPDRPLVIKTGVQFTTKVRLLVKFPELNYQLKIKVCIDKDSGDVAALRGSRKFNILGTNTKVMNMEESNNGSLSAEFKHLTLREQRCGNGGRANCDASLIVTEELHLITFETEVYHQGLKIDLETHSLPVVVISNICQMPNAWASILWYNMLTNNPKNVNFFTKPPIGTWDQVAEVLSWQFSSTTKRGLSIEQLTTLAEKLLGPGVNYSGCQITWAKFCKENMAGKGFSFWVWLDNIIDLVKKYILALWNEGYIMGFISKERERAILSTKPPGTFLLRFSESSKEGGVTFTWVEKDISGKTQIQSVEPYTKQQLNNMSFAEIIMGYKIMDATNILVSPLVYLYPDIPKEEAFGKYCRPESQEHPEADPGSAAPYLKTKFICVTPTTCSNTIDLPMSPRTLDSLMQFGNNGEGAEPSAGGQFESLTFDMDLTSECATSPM

COc1ccc(C/C=C/c2ccc(O)c(OC)c2)cc1 [MMPP, 2-methoxy-4-(3-(4-methoxyphenyl)prop-1-en-1-yl)phenol]
interaction with STAT3 in pull-down assay [1]: mediated the interaction | iNOS and COX-2 expression [2]: reduced in a concentration-dependent manner | PGE2 expression [3]: inhibited | ROS expression [3]: inhibited | level of pro-inflammatory cytokines (TNF-α, IL-6 and IL-1) [3]: inhibited | NO and ROS generation [4]: reduced | STAT3 and NF-κB activities [4]: reduced | iNOS and COX2 expression [4]: reduced | NO and ROS generations [5]: reduced | STAT3 and NF-κB activities [5]: reduced | iNOS and COX2 expression [5]: reduced | NF-κB STAT3 DNA-binding activity [6]: inhibited | STAT3 DNA-binding activity [6]: inhibited | nuclear translocation of pSTAT3, p50 and p65 [6]: inhibited | phosphorylation of IkB, IKKb and IKKa [6]: inhibited
